Assay [1] relates to Sphaerotheca fuliginea. In words: In vivo preventive test on Sphaerotheca fuliginea (powdery mildew on cucurbits). The following applies: 500 ppm, gherkin plants, grading 12 days after contamination. How it is done:
The active ingredients tested are prepared by homogenization in a mixture of acetone/tween/DMSO and then diluted with water to obtain the desired active material concentration.
Gherkin plants (“Vert petit de Paris” variety), sown in starter cups on a 50/50 peat soil-pozzolana substrate and grown at 24° C., are treated at the Z11 cotyledon stage by spraying with the active ingredient prepared as described above. Plants, used as controls, are treated with the mixture of acetone/tween/DMSO/water not containing the active material.
After 24 hours, the plants are contaminated by spraying the cotyledons with an aqueous suspension of Sphaerotheca fuliginea spores (100 000 spores per mL). The spores are collected from infected plants. The contaminated gherkin plants are incubated at about 20° C. and at 70-80% relative humidity.
Grading (% of efficacy) is carried out 12 days after the contamination, in comparison with the control plants.
Under these conditions, good (at least 70%) to total protection is observed at a dose of 500 ppm of active ingredient with the following compounds from table A: […]

For assay [2], the system named is Alternaria solani. In words: In vivo preventive test on Alternaria solani (tomato). The following applies: 100 ppm, evaluated 3 days after inoculation. How it is done: Solvent: 24.5 parts by weight of acetone
• 24.5 parts by weight of N,N-dimethylacetamide Emulsifier: 1 part by weight of alkylarylpolyglycol ether
(§1) To produce a suitable preparation of active compound, 1 part by weight of active compound is mixed with the stated amounts of solvent and emulsifier, and the concentrate is diluted with water to the desired concentration.
To test for preventive activity, young plants are sprayed with the preparation of active compound at the stated rate of application. After the spray coating has dried on, the plants are inoculated with an aqueous spore suspension of Alternaria solani. The plants are then placed in an incubation cabinet at approximately 20° C. and a relative atmospheric humidity of 100%.
The test is evaluated 3 days after the inoculation. 0% means an efficacy which corresponds to that of the untreated control while an efficacy of 100% means that no disease is observed.
Under these conditions, high (at least 90%) protection is observed at a dose of 100 ppm of active ingredient with the following compound from table B: […]

Assay [3] concerns Venturia inaequalis. In words: In vivo preventive test on Venturia inaequalis (apples). The following applies: 100 ppm, evaluated 10 days after inoculation. The protocol:
as §1
To test for preventive activity, young plants are sprayed with the preparation of active compound at the stated rate of application. After the spray coating has dried on, the plants are inoculated with an aqueous conidia suspension of the causal agent of apple scab (Venturia inaequalis) and then remain for 1 day in an incubation cabinet at approximately 20° C. and a relative atmospheric humidity of 100%.
The plants are then placed in a greenhouse at approximately 21° C. and a relative atmospheric humidity of approximately 90%.
The test is evaluated 10 days after the inoculation. 0% means an efficacy which corresponds to that of the untreated control, while an efficacy of 100% means that no disease is observed.
Under these conditions, excellent (at least 95%) protection is observed at a dose of 100 ppm of active ingredient with the following compound from table D: […]

In assay [4] the test system is Leptosphaeria nodorum. In words: In vivo preventive test on Leptosphaeria nodorum (wheat). The following applies: 100 ppm, evaluated 7-9 days after inoculation. The protocol: Solvent: 49 parts by weight of N,N-dimethylacetamide
Emulsifier: 1 part by weight of alkylarylpolyglycol ether
To produce a suitable preparation of active compound, 1 part by weight of active compound or active compound combination is mixed with the stated amounts of solvent and emulsifier, and the concentrate is diluted with water to the desired concentration.
To test for preventive activity, young plants are sprayed with the preparation of active compound or active compound combination at the stated rate of application.
After the spray coating has been dried, the plants are sprayed with a spore suspension of Leptosphaeria nodorum. The plants remain for 48 hours in an incubation cabinet at approximately 20° C. and a relative atmospheric humidity of approximately 100%.
The plants are placed in the greenhouse at a temperature of approximately 22° C. and a relative atmospheric humidity of approximately 80%.
The test is evaluated 7-9 days after the inoculation. 0% means an efficacy which corresponds to that of the untreated control, while an efficacy of 100% means that no disease is observed.
Under these conditions, excellent (at least 95%) protection is observed at a dose of 100 ppm of active ingredient with the following compound from table G: […]

Assay [5] has as its system Pyrenophora teres. In words: In vivo preventive test on Pyrenophora teres (barley). The following applies: 500 ppm of active ingredient; barley plants, preventive spray; grading 14 days after contamination. The procedure, abridged:
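Barley plants ('Plaisant', 1-leaf stage) were sprayed with compound in acetone/tween/DMSO/water, then inoculated 24 h later with P. teres spores (12 000 spores per mL). Plants were held 48 h at 20° C./100% RH, then 12 days at 70-80% RH. Efficacy (%) was graded 14 days after inoculation relative to solvent-treated controls.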

The subject of assay [6] is Puccinia recondita. In words: In vivo preventive test on Puccinia recondita (brown rust on wheat). The following applies: 500 ppm of active ingredient; wheat plants, preventive spray; grading 12 days after contamination. In a few lines: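 Wheat ("Scipion") at the 1-leaf stage was sprayed with compound in acetone/tween/DMSO/water, then inoculated 24 h later with Puccinia recondita spores (100 000 spores per mL). Plants were held 24 h at 20° C and 100% RH, then 10 days at 20° C and 70-80% RH. Efficacy (%) was graded 12 days post-inoculation against solvent-treated controls.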

The test system of assay [7] is Septoria tritici. In words: In vivo preventive test on Septoria tritici (wheat). The conditions noted are these: 500 ppm of active ingredient; wheat plants, preventive spray; grading 24 days after contamination. The protocol:
The active ingredients tested are prepared by homogenization in a mixture of acetone/tween/DMSO, and then diluted with water to obtain the desired active material concentration.
Wheat plants (“Scipion” variety), sown in starter cups on a 50/50 peat soil pozzolana substrate and grown at 22° C., are treated at the 1 leaf stage (10 cm height) by spraying with the active ingredient prepared as described above. Plants, used as controls, are treated with the mixture of acetone/tween/DMSO/water not containing the active material.
After 24 hours, the plants are contaminated by spraying the leaves with an aqueous suspension of cryopreserved Septoria tritici spores (500 000 spores per mL). The contaminated wheat plants are incubated for 72 hours at 18° C. and at 100% relative humidity, and then for 21 days at 90% relative humidity.
Grading (% of efficacy) is carried out 24 days after the contamination, in comparison with the control plants.
Under these conditions, good (at least 70%) to total protection is observed at a dose of 500 ppm of active ingredient with the following compounds from table J: […]

As to `Cc1nn(C)c(F)c1C(=O)N(C1CC1)C(C)c1ccccc1C1=CCCC1` (racemic) [I.1], the Efficacy is 100% in assay [1]; 94% in assay [2]; 98% in assay [3]; 95% in assay [4]; 97% in assay [5]; 81% in assay [6]. In addition, in assay [7], the Efficacy was found to be 97%.

The record behind these values is patent US9540314B2, “N-cycloalkyl-N-[(cycloalkenylphenyl)methylene]-(thio) carboxamide derivatives” (BAYER INTELLECTUAL PROPERTY GMBH, priority 2012, dated 2017).
